Here are results for 26 compounds from patent publication US10285989B2, “Pyrimidinone amide compounds as PDE2 inhibitors” (Merck Sharp & Dohme Corp., priority 2015, dated 2019).

Molecules are shown by their SMILES.

human PDE2A1, sequence (O00408 other isoform, or with tags, fused parts or gaps): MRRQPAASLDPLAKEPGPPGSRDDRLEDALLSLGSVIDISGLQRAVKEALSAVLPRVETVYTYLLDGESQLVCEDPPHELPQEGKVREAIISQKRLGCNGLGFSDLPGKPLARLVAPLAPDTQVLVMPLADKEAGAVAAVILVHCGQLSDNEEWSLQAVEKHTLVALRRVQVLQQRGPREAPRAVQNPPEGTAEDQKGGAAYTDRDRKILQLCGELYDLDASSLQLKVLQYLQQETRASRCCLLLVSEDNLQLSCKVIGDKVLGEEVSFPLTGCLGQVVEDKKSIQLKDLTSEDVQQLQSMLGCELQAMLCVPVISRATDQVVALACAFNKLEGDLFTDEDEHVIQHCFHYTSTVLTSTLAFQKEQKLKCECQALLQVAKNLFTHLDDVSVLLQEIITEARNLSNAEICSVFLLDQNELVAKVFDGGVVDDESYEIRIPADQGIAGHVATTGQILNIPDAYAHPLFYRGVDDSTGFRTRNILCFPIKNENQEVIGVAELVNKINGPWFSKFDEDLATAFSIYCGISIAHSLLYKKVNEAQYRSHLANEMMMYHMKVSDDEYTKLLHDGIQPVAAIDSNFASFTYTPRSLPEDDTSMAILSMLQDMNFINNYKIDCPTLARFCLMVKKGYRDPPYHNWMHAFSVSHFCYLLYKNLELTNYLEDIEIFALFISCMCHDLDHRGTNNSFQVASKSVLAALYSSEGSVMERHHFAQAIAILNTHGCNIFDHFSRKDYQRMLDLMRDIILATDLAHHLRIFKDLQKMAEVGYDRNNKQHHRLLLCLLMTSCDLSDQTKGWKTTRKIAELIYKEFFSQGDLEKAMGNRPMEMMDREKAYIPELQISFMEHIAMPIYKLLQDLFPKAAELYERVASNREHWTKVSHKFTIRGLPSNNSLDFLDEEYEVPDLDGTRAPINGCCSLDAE

For one assay, the target named is human PDE2A1 (Homo sapiens (Human), UniProt O00408). Kind of assay: PDE2 IMAP FP inhibition assay, human PDE2A1 (selectivity panel format). Format: biochemical. Particulars: @ 3 μM; Lab B; read-out: Human PDE2 % inhibition at a given concentration - Lab B. As to the method:
Selectivity for PDE2, as compared to other PDE families, was assessed using the IMAP® technology. Human PDE10A2 enzyme was prepared from cytosolic fractions of transiently transfected HEK cells.
A Labcyte POD 810 (Labcyte, Sunnyvale, Calif.) was used to dispense 200 nL from each well of the titration plate to make eleven copies of the assay plate for each titration, one copy for each PDE enzyme. A solution of each enzyme (dilution from aliquots, sufficient to produce 20% substrate conversion) and a separate solution of FAM-labeled cAMP or FAM-labeled cGMP from Molecular Devices (Sunnyvale, Calif., product # R7506 or cGMP#R7508), at a final concentration of 50 nM were made in the assay buffer (10 mM Tris HCl, pH 7.2, 10 mM MgCl2, 0.05% NaN3 0.01% Tween-20, and 1 mM DTT). Note that the substrate for PDE2 is 50 nM FAM cAMP containing 1000 nM of cGMP. The enzyme and the substrate were then added to the assay plates in two consecutive additions of 10 μL and then shaken to mix. The reaction was allowed to proceed at room temperature for 60 minutes. A binding solution was then made from the kit components, comprised of 80% Solution A, 20% Solution B and binding reagent at a volume of 1/600 the total binding solution. The enzymatic reaction was stopped by addition of 60 μL of the binding solution to each well of the assay plate. The plates were sealed and shaken for 10 seconds. The plates were incubated at room temperature for one hour, then the parallel and perpendicular fluorescence was measured using a Tecan Genios Pro plate reader (Tecan, Switzerland). […] The intrinsic PDE2 inhibitory activity of a compound which may be used in accordance with the present invention may be determined by these assays. […]
For the compound `CC(NC(=O)c1cc(=O)[nH]c(N(C)C)n1)c1ccc(C(C)(C)C(F)(F)F)cc1` (single isomer, unassigned) [Example 121, (S)- or (R)-2-(dimethylamino)-6-oxo-N-{1-[4-(2,2,2-trifluoro-1,1-dimethylethyl)phenyl]ethyl}-1,6-dihydropyrimidine-4-carboxamide], the inhibition at 3 µM was 15%.
Same read-out and setting: as for `CN(C)c1nc(C(=O)NC(c2ccc(SC(F)(F)F)c(F)c2)C2(C)CC2)cc(=O)[nH]1` (single isomer, unassigned) [Example 119, (S)- or (R)-2-(dimethylamino)-N-[{3-fluoro-4-[(trifluoromethyl)sulfanyl]phenyl}(1-methylcyclopropyl)methyl]-6-oxo-1,6-dihydropyrimidine-4-carboxamide], the figure is 49%.

The same assay, now with this note: Lab A; read-out: Human PDE2 Ki (nM) - Lab A.
Regarding `CC(C)[C@@H](NC(=O)c1cc(=O)[nH]c(N2CC[C@@H](O)C2)n1)c1ccc(OC(F)(F)F)c(F)c1` [Example 166, N-{(1R)-1-[3-fluoro-4-(trifluoromethoxy)phenyl]-2-methylpropyl}-2-[(3R)-3-hydroxypyrrolidin-1-yl]-6-oxo-1,6-dihydropyrimidine-4-carboxamide], the Ki is 1.3 nM.

Still in this assay, the particulars now being: Lab B; read-out: Human PDE2 Ki (nM) - Lab B.
Consider `CN(C)c1nc(C(=O)NC2(c3ccc(C(F)(F)F)cc3F)CC2)cc(=O)[nH]1` [Example 49, 2-(dimethylamino)-N-{1-[2-fluoro-4-(trifluoromethyl)phenyl]cyclopropyl}-6-oxo-1,6-dihydropyrimidine-4-carboxamide], for which the Ki came to 2.7 nM.
The same measure, in the same setting: next, `CN(C)c1nc(C(=O)N[C@](C)(CO)c2ccc(C(F)(F)F)cc2Cl)cc(=O)[nH]1` [Example 200, N-{(1S)-1-[2-chloro-4-(trifluoromethyl)phenyl]-2-hydroxy-1-methylethyl}-2-(dimethylamino)-6-oxo-1,6-dihydropyrimidine-4-carboxamide]: 0.52 nM.
Still for that read-out and setting: as for `CN(C)c1nc(C(=O)NC2(c3ccc(OC(F)(F)F)cc3)CCC2)cc(=O)[nH]1` [Example 201, 2-(dimethylamino)-6-oxo-N-{1-[4-(trifluoromethoxy)phenyl]cyclobutyl}-1,6-dihydropyrimidine-4-carboxamide], the figure is 18 nM; as for `CN(C)c1nc(C(=O)NC(c2ccc(C3(C)CC3)c(F)c2)C(C)(C)C)cc(=O)[nH]1` (single isomer, unassigned) [Example 123, (S)- or (R)-2-(dimethylamino)-N-{1-[3-fluoro-4-(1-methylcyclopropyl)phenyl]-2,2-dimethylpropyl}-6-oxo-1,6-dihydropyrimidine-4-carboxamide], 167 nM; as for `CN(C)c1nc(C(=O)NC(c2ccncc2)c2ccc(C(F)(F)F)cc2)cc(=O)[nH]1` (centres unmarked) [Example 196, 2-(dimethylamino)-6-oxo-N-{pyridin-4-yl[4-(trifluoromethyl)phenyl]methyl}-1,6-dihydropyrimidine-4-carboxamide], 91 nM.
The same measure, in the same setting: as for `C[C@H]1C[C@]1(NC(=O)c1cc(=O)[nH]c(N(C)C)n1)c1ccc(C(F)(F)F)cc1` (single isomer, unassigned; enantiomer a) [Example 174, 2-(dimethylamino)-N-{2-methyl-1-[4-(trifluoromethyl)phenyl]cyclopropyl}-6-oxo-1,6-dihydropyrimidine-4-carboxamide (cis, enantiomer A)], the figure is 2.7 nM.
As to `CN(C)c1nc(C(=O)NC(CC#N)c2ccc(C(F)(F)F)cc2)cc(=O)[nH]1` (centres unmarked) [Example 203, N-{2-cyano-1-[4-(trifluoromethyl)phenyl]ethyl}-2-(dimethylamino)-6-oxo-1,6-dihydropyrimidine-4-carboxamide], the Ki came out at 22 nM.
Same read-out and setting: as for `CN(C)c1nc(C(=O)N[C@H]2CCCc3cc(C(F)(F)F)ccc32)cc(=O)[nH]1` [Example 204, 2-(dimethylamino)-6-oxo-N-[(1S)-6-(trifluoromethyl)-1,2,3,4-tetrahydronaphthalen-1-yl]-1,6-dihydropyrimidine-4-carboxamide], the figure is 129 nM; as for `CN(C)c1nc(C(=O)NC2(c3ccc(OC(C)(C)C)cc3)CC2)cc(=O)[nH]1` [Example 50, N-[1-(4-tert-butoxyphenyl)cyclopropyl]-2-(dimethylamino)-6-oxo-1,6-dihydropyrimidine-4-carboxamide], 27 nM.
Still for that read-out and setting: next, `CC(C)[C@@H](NC(=O)c1cc(=O)[nH]c(O)n1)c1ccc(SC(F)(F)F)cc1` [Example 20, (R)-2-hydroxy-N-(2-methyl-1-(4-((trifluoromethyl)thio)phenyl)propyl)-6-oxo-1,6-dihydropyrimidine-4-carboxamide]: 329 nM; `CN(C)c1nc(C(=O)NC(C#N)c2ccc(C(F)(F)F)cc2)cc(=O)[nH]1` (centres unmarked) [Example 199, N-{cyano[4-(trifluoromethyl)phenyl]methyl}-2-(dimethylamino)-6-oxo-1,6-dihydropyrimidine-4-carboxamide]: 27 nM.
`CN(C)c1nc(C(=O)NC(C)(C)c2ccc(C(F)F)c(F)c2)cc(=O)[nH]1` [Example 69, N-{1-[4-(difluoromethyl)-3-fluorophenyl]-1-methylethyl}-2-(dimethylamino)-6-oxo-1,6-dihydropyrimidine-4-carboxamide]: the Ki amounted to 10 nM.
Still for that read-out and setting: next, `CC[C@@H](NC(=O)c1cc(=O)[nH]c(N(C)C)n1)c1ccc(C(F)F)c(F)c1` [Example 68, N-{(1R)-1-[4-(difluoromethyl)-3-fluorophenyl]propyl}-2-(dimethylamino)-6-oxo-1,6-dihydropyrimidine-4-carboxamide]: 12 nM; `CN(C)c1nc(C(=O)NC2(c3ccc(OC(F)F)cc3)CC2)cc(=O)[nH]1` [Example 52, N-{1-[4-(difluoromethoxy)phenyl]cyclopropyl}-2-(dimethylamino)-6-oxo-1,6-dihydropyrimidine-4-carboxamide]: 11 nM; `CN(C)c1nc(C(=O)NC(CO)c2ccc(C(F)(F)F)cc2)cc(=O)[nH]1` (centres unmarked) [Example 206, 2-(dimethylamino)-N-{2-hydroxy-1-[4-(trifluoromethyl)phenyl]ethyl}-6-oxo-1,6-dihydropyrimidine-4-carboxamide]: 7.2 nM.
Still for that read-out and setting: next, `C[C@H]1C[C@]1(NC(=O)c1cc(=O)[nH]c(N(C)C)n1)c1ccc(C(F)(F)F)cc1` (single isomer, unassigned; enantiomer b) [Example 175, 2-(dimethylamino)-N-{2-methyl-1-[4-(trifluoromethyl)phenyl]cyclopropyl}-6-oxo-1,6-dihydropyrimidine-4-carboxamide (cis, enantiomer B)]: 0.92 nM.
The same measure, in the same setting: as for `CN(C)c1nc(C(=O)N[C@@H](c2ccc(OC(F)(F)F)c(F)c2)C(C)(C)O)cc(=O)[nH]1` [Example 208, 2-(dimethylamino)-N-{(1S)-1-[3-fluoro-4-(trifluoromethoxy)phenyl]-2-hydroxy-2-methylpropyl}-6-oxo-1,6-dihydropyrimidine-4-carboxamide], the figure is 0.12 nM; as for `CC(C)[C@@H](NC(=O)c1cc(=O)[nH]c(N(C)C)n1)c1ccc(C(F)F)c(F)c1` [Example 65, N-{(1R)-1-[4-(difluoromethyl)-3-fluorophenyl]-2-methylpropyl}-2-(dimethylamino)-6-oxo-1,6-dihydropyrimidine-4-carboxamide], 2.2 nM; as for `CN(C)c1nc(C(=O)NC(c2ccc(S(F)(F)(F)(F)F)cc2F)C(C)(C)C)cc(=O)[nH]1` (single isomer, unassigned) [Example 127, (S)- or (R)-2-(dimethylamino)-N-{1-[2-fluoro-4-(pentafluoro-λ^6-sulfanyl)phenyl]-2,2-dimethylpropyl}-6-oxo-1,6-dihydropyrimidine-4-carboxamide], 527 nM.
Take `CC[C@@H](NC(=O)c1cc(=O)[nH]c(N(C)C)n1)c1ccc(C(F)F)cc1` [Example 67, N-{(1R)-1-[4-(difluoromethyl)phenyl]propyl}-2-(dimethylamino)-6-oxo-1,6-dihydropyrimidine-4-carboxamide]: the Ki was found to be 6.9 nM.
Same read-out and setting: as for `CN(C)c1nc(C(=O)NC2(c3ccc(C(F)F)c(F)c3)CC2)cc(=O)[nH]1` [Example 70, N-{1-[4-(difluoromethyl)-3-fluorophenyl]cyclopropyl}-2-(dimethylamino)-6-oxo-1,6-dihydropyrimidine-4-carboxamide], the figure is 9.7 nM; as for `CN(C)c1nc(C(=O)N[C@H](c2ccc(C(F)(F)F)cc2)C(C)(C)C)cc(=O)[nH]1` [Example 72, 2-(dimethylamino)-N-{(1S)-2,2-dimethyl-1-[4-(trifluoromethyl)phenyl]propyl}-6-oxo-1,6-dihydropyrimidine-4-carboxamide], 17 nM.
The same measure, in the same setting: as for `CN(C)c1nc(C(=O)NC(C)(C)c2ccc(OC(F)(F)F)cc2F)cc(=O)[nH]1` [Example 81, 2-(dimethylamino)-N-{1-[2-fluoro-4-(trifluoromethoxy)phenyl]-1-methylethyl}-6-oxo-1,6-dihydropyrimidine-4-carboxamide], the figure is 21 nM.

A word on the Ki: it is a measure of affinity in units of concentration, obtained from inhibition or displacement.
